ChEMBL document CHEMBL1212693, “Dorsomorphin inhibits BMP signals required for embryogenesis and iron metabolism” (Nat Chem Biol, 2008)
Active and inactive are the calls of the source. The calls are words filed in the database; no cut-off is given here.

Tests used:
[1] = species on record: Danio rerio; assay: Inhibition of AMPK in zebrafish assessed as embryonic axis dorsalization at 40 uM treated at 3 hrs post-fertilization measured at 48 hrs; parameters: scale not given: the % may be the effect or the level left
[2] = species on record: Danio rerio; assay: Toxicity in zebrafish assessed as survivability at 4 to 400 uM treated at 3 hrs post-fertilization measured at 48 hrs; assay type: organism-based; conditions: in vivo
[3] = species on record: Danio rerio; assay: Inhibition of AMPK in zebrafish assessed as embryonic axis dorsalization at 400 uM treated at 3 hrs post-fertilization measured at 48 hrs; parameters: scale not given: the % may be the effect or the level left
[4] = species on record: Danio rerio; assay: Inhibition of AMPK in zebrafish assessed as embryonic axis dorsalization at 100 uM treated at 3 hrs post-fertilization measured at 48 hrs; parameters: scale not given: the % may be the effect or the level left
[5] = species on record: Danio rerio; assay: Inhibition of AMPK in zebrafish assessed as embryonic axis dorsalization at 4 uM treated at 3 hrs post-fertilization measured at 48 hrs; parameters: scale not given: the % may be the effect or the level left
[6] = species on record: Danio rerio; assay: Inhibition of AMPK in zebrafish assessed as embryonic axis dorsalization at 20 uM treated at 3 hrs post-fertilization measured at 48 hrs; parameters: scale not given: the % may be the effect or the level left
[7] = species on record: Danio rerio; assay: Inhibition of AMPK in zebrafish assessed as embryonic axis dorsalization at 200 uM treated at 3 hrs post-fertilization measured at 48 hrs; parameters: scale not given: the % may be the effect or the level left
[8] = target: AMP-activated protein kinase, AMPK (Homo sapiens) (UniProt P54646+O43741+P54619+Q9UGJ0+Q9Y478+Q13131+Q9UGI9); assay: Inhibition of AMPK-mediated hepcidin mRNA expression in BMP2-stimulated human Hep3B cells at 250 uM treated 30 mins before BMP2 challenge measured after 16 hrs by qRT-PCR analysis; assay type: cell-based; conditions: Hep 3B2
[9] = tested on: Hep 3B2; assay: Inhibition of hepcidin mRNA expression in human Hep3B cells at 250 uM after 30 mins by qRT-PCR analysis; assay type: functional; conditions: 0.5 h

SMILES | Activity [1] [%] | Activity [2] | Activity [3] [%] | Activity [4] [%] | Activity [5] [%] | Activity [6] [%] | Activity [7] [%] | inhibition [8] | inhibition at 250 µM [9] [%]
C=C1C(=O)O[C@H](CCCCCCCC)[C@H]1C(=O)O | 0 | Toxic | 0 | 0 | 0 | 0 | 0 |  | 
Nc1ncnc2c1ncn2[C@@H]1O[C@H](CO)[C@@H](O)[C@@H]1O [VIDARABINE] |  |  |  |  |  |  |  | inactive | 40
